Consider 2 compounds from publication PMC6887759, “The C-Type Lysozyme from the upper Gastrointestinal Tract of Opisthocomus hoatzin, the Stinkbird” (International Journal of Molecular Sciences, 2019).

Assay [1] addresses T1, OhLys-kexB (E35A variant used for the ligand complexes) (Opisthocomus hoazin, UniProt Q91159, INS20KR/E54A).
T1 construct: gene LYZ; mature enzyme, 126 residues in wild type, secreted from Aspergillus oryzae; Lys-Arg inserted between Glu1 and Ile2 (uncleaved kexB site), N-terminus EKRIIPRCELV; monomer in asymmetric unit
The experiment in a line: X-ray crystallography, co-crystallisation. Particulars: added as chitohexaose; hydrolysed by residual activity, so only sugars in -1 to -3 (weak -4) seen; intact hexamer not observed; mature numbering. It counts as biochemical.

Assay [2] deals with T1, OhLys-kexB (E35A variant used for the ligand complexes). The experiment in a line: X-ray crystallography, co-crystallisation. Format: binding. Particulars: density essentially identical to the chitohexaose co-crystal, subsites -1 to -3 (poorly ordered -4); not fully refined; mature numbering.

T1 sequence (Q91159 other isoform, or with tags, fused parts or gaps INS20KR/E54A): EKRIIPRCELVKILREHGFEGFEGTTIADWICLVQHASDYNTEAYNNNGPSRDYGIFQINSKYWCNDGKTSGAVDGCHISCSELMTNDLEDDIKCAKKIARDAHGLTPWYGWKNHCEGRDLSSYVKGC

In the case of `CC(=O)N[C@H]1[C@H](O[C@H]2[C@H](O)[C@@H](NC(C)=O)[C@H](O[C@H]3[C@H](O)[C@@H](NC(C)=O)C(O)O[C@@H]3CO)O[C@@H]2CO)O[C@H](CO)[C@@H](O[C@@H]2O[C@H](CO)[C@@H](O[C@@H]3O[C@H](CO)[C@@H](O[C@@H]4O[C@H](CO)[C@@H](O)[C@H](O)[C@H]4NC(C)=O)[C@H](O)[C@H]3NC(C)=O)[C@H](O)[C@H]2NC(C)=O)[C@@H]1O` (some centres unmarked) [chitohexaose], the “X-ray crystallography, co-crystallisation” value in assay [1] is recorded as “hydrolyse; at the high protein concentrations of a prolonged crystallization, the chitohexaose substrate”. Turning to `CC(=O)N[C@H]1[C@H](O[C@H]2[C@H](O)[C@@H](NC(C)=O)C(O)O[C@@H]2CO)O[C@H](CO)[C@@H](O[C@@H]2O[C@H](CO)[C@@H](O[C@@H]3O[C@H](CO)[C@@H](O)[C@H](O)[C@H]3NC(C)=O)[C@H](O)[C@H]2NC(C)=O)[C@@H]1O` (some centres unmarked) [chitotetraose], the “X-ray crystallography, co-crystallisation” value in assay [2] is reported as “The density for the chitotetraose ligand is essentially identical to this”.
